Test results published in ChEMBL document CHEMBL2440076, “New triarylpyrazoles as broad-spectrum anticancer agents: design, synthesis, and biological evaluation” (Eur J Med Chem, 2013).

What was measured:
Format in all cases: functional
SF-295 = experiment: Growth inhibition of human SF295 cells assessed as cell growth at 5X10'-5 M after 48 hrs by sulforhodamine B assay; conditions: SF-295, 48 h, read-out: Activity
OVCAR-8 [1] = experiment: Growth inhibition of human OVCAR8 cells assessed as cell growth at 5X10'-9 M after 48 hrs by sulforhodamine B assay; conditions: OVCAR-8, 48 h, read-out: Activity
SF-539 = experiment: Growth inhibition of human SF539 cells assessed as cell growth at 5X10'-9 M after 48 hrs by sulforhodamine B assay; conditions: SF-539, 48 h, read-out: Activity
Malme-3M [2] = experiment: Growth inhibition of human MALME-3M cells assessed as cell growth at 5X10'-8 M after 48 hrs by sulforhodamine B assay; conditions: read-out: Activity
OVCAR-8 [3] = experiment: Growth inhibition of human OVCAR8 cells assessed as cell growth at 5X10'-6 M after 48 hrs by sulforhodamine B assay; conditions: OVCAR-8, 48 h, read-out: Activity
T47D = experiment: Growth inhibition of human T47D cells assessed as cell growth at 5X10'-8 M after 48 hrs by sulforhodamine B assay; conditions: read-out: Activity
M14 = experiment: Growth inhibition of human M14 cells assessed as cell growth at 5X10'-8 M after 48 hrs by sulforhodamine B assay; conditions: M14, 48 h, read-out: Activity
NCI-H226 = experiment: Growth inhibition of human NCI-H226 cells assessed as cell growth at 5X10'-8 M after 48 hrs by sulforhodamine B assay; conditions: NCI-H226, 48 h, read-out: Activity
BT-549 [4] = experiment: Growth inhibition of human BT549 cells assessed as cell growth at 5X10'-9 M after 48 hrs by sulforhodamine B assay; conditions: BT-549, 48 h, read-out: Activity
LOX IMVI [5] = experiment: Growth inhibition of human LOXIMVI cells assessed as cell growth at 5X10'-5 M after 48 hrs by sulforhodamine B assay; conditions: read-out: Activity
K562 [6] = experiment: Growth inhibition of human K562 cells assessed as cell growth at 5X10'-9 M after 48 hrs by sulforhodamine B assay; conditions: K562, 48 h, read-out: Activity
NCI-H522 = experiment: Growth inhibition of human NCI-H522 cells assessed as cell growth at 5X10'-7 M after 48 hrs by sulforhodamine B assay; conditions: NCI-H522, 48 h, read-out: Activity
RPMI-8226 = experiment: Growth inhibition of human RPMI8226 cells assessed as cell growth at 5X10'-6 M after 48 hrs by sulforhodamine B assay; conditions: RPMI-8226, 48 h, read-out: Activity
MOLT-4 = experiment: Growth inhibition of human MOLT4 cells assessed as cell growth at 5X10'-5 M after 48 hrs by sulforhodamine B assay; conditions: MOLT-4, 48 h, read-out: Activity
TK-10 = experiment: Growth inhibition of human TK10 cells assessed as cell growth at 5X10'-5 M after 48 hrs by sulforhodamine B assay; conditions: TK-10, 48 h, read-out: Activity
ACHN = experiment: Growth inhibition of human ACHN cells assessed as cell growth at 5X10'-5 M after 48 hrs by sulforhodamine B assay; conditions: read-out: Activity
NCI-H460 = experiment: Growth inhibition of human NCI-H460 cells assessed as cell growth at 5X10'-7 M after 48 hrs by sulforhodamine B assay; conditions: NCI-H460, 48 h, read-out: Activity
K562 [7] = experiment: Growth inhibition of human K562 cells assessed as cell growth at 5X10'-5 M after 48 hrs by sulforhodamine B assay; conditions: K562, 48 h, read-out: Activity
[8] = Growth inhibition of human NCI-ADR-RES cells assessed as cell growth at 5X10'-7 M after 48 hrs by sulforhodamine B assay; conditions: read-out: Activity
OVCAR-3 [9] = experiment: Growth inhibition of human OVCAR3 cells assessed as cell growth at 5X10'-6 M after 48 hrs by sulforhodamine B assay; conditions: OVCAR-3, 48 h, read-out: Activity
[10] = Growth inhibition of human HCC2998 cells assessed as cell growth at 5X10'-5 M after 48 hrs by sulforhodamine B assay; conditions: HCC 2998, 48 h, read-out: Activity
MDA-MB-231 [11] = experiment: Growth inhibition of human MDA-MB-231 cells assessed as cell growth at 5X10'-5 M after 48 hrs by sulforhodamine B assay; conditions: MDA-MB-231, 48 h, read-out: Activity
Malme-3M [12] = experiment: Growth inhibition of human MALME-3M cells assessed as cell growth at 5X10'-9 M after 48 hrs by sulforhodamine B assay; conditions: read-out: Activity
BT-549 [13] = experiment: Growth inhibition of human BT549 cells assessed as cell growth at 5X10'-8 M after 48 hrs by sulforhodamine B assay; conditions: BT-549, 48 h, read-out: Activity
OVCAR-8 [14] = experiment: Growth inhibition of human OVCAR8 cells assessed as cell growth at 5X10'-8 M after 48 hrs by sulforhodamine B assay; conditions: OVCAR-8, 48 h, read-out: Activity
HT-29 = experiment: Growth inhibition of human HT-29 cells assessed as cell growth at 5X10'-7 M after 48 hrs by sulforhodamine B assay; conditions: HT-29, 48 h, read-out: Activity
SK-MEL-2 [15] = experiment: Growth inhibition of human SK-MEL-2 cells assessed as cell growth at 5X10'-8 M after 48 hrs by sulforhodamine B assay; conditions: SK-MEL-2, 48 h, read-out: Activity
RXF 393 = experiment: Growth inhibition of human RXF393 cells assessed as cell growth at 5X10'-7 M after 48 hrs by sulforhodamine B assay; conditions: RXF 393, 48 h, read-out: Activity
Malme-3M [16] = experiment: Growth inhibition of human MALME-3M cells assessed as cell growth at 5X10'-6 M after 48 hrs by sulforhodamine B assay; conditions: read-out: Activity
OVCAR-3 [17] = experiment: Growth inhibition of human OVCAR3 cells assessed as cell growth at 5X10'-8 M after 48 hrs by sulforhodamine B assay; conditions: OVCAR-3, 48 h, read-out: Activity
LOX IMVI [18] = experiment: Growth inhibition of human LOXIMVI cells assessed as cell growth at 5X10'-6 M after 48 hrs by sulforhodamine B assay; conditions: read-out: Activity
SK-MEL-2 [19] = experiment: Growth inhibition of human SK-MEL-2 cells assessed as cell growth at 5X10'-6 M after 48 hrs by sulforhodamine B assay; conditions: SK-MEL-2, 48 h, read-out: Activity
SK-OV-3 = experiment: Growth inhibition of human SKOV3 cells assessed as cell growth at 5X10'-5 M after 48 hrs by sulforhodamine B assay; conditions: SK-OV-3, 48 h, read-out: Activity
SN12C = experiment: Growth inhibition of human SN12C cells assessed as cell growth at 5X10'-9 M after 48 hrs by sulforhodamine B assay; conditions: read-out: Activity
MDA-MB-231 [20] = experiment: Growth inhibition of human MDA-MB-231 cells assessed as cell growth at 5X10'-9 M after 48 hrs by sulforhodamine B assay; conditions: MDA-MB-231, 48 h, read-out: Activity
U-251 = experiment: Growth inhibition of human U251 cells assessed as cell growth at 5X10'-8 M after 48 hrs by sulforhodamine B assay; conditions: U-251, 48 h, read-out: Activity
SK-MEL-28 = experiment: Growth inhibition of human SK-MEL-28 cells assessed as cell growth at 5X10'-7 M after 48 hrs by sulforhodamine B assay; conditions: SK-MEL-28, 48 h, read-out: Activity

O=C(Nc1cccc(-n2cc(-c3ccncc3)c(-c3ccc(Cl)c(O)c3)n2)c1)Nc1cc(C(F)(F)F)cc(C(F)(F)F)c1
growth at 50 µM (SF-295): -76%
growth at 0.005 µM (OVCAR-8 [1]): 101%
growth at 0.005 µM (SF-539): 98%
growth at 0.05 µM (Malme-3M [2]): 100%
growth at 5 µM (OVCAR-8 [3]): 4%
growth at 0.05 µM (T47D): 98%
growth at 0.05 µM (M14): 104%
growth at 0.05 µM (NCI-H226): 85%
growth at 0.005 µM (BT-549 [4]): 99%
growth at 50 µM (LOX IMVI [5]): -95%
growth at 0.005 µM (K562 [6]): 105%
growth at 0.5 µM (NCI-H522): 65%
growth at 5 µM (RPMI-8226): 4%
growth at 50 µM (MOLT-4): -29%
growth at 50 µM (TK-10): -95%
growth at 50 µM (ACHN): -95%
growth at 0.5 µM (NCI-H460): 45%
growth at 50 µM (K562 [7]): -26%
growth at 0.5 µM [8]: 74%
growth at 5 µM (OVCAR-3 [9]): -70%
growth at 50 µM [10]: -90%
growth at 50 µM (MDA-MB-231 [11]): -72%
growth at 0.005 µM (Malme-3M [12]): 107%
growth at 0.05 µM (BT-549 [13]): 111%
growth at 0.05 µM (OVCAR-8 [14]): 93%
growth at 0.5 µM (HT-29): 72%
growth at 0.05 µM (SK-MEL-2 [15]): 113%
growth at 0.5 µM (RXF 393): 82%
growth at 5 µM (Malme-3M [16]): -21%
growth at 0.05 µM (OVCAR-3 [17]): 111%
growth at 5 µM (LOX IMVI [18]): -94%
growth at 5 µM (SK-MEL-2 [19]): -28%
growth at 50 µM (SK-OV-3): -49%
growth at 0.005 µM (SN12C): 96%
growth at 0.005 µM (MDA-MB-231 [20]): 94%
growth at 0.05 µM (U-251): 93%
growth at 0.5 µM (SK-MEL-28): 84%

COc1cc(-c2nn(-c3cccc(NC(=O)Nc4ccc(Cl)c(Cl)c4)c3)cc2-c2ccncc2)ccc1Cl
growth at 50 µM (SF-295): -42%
growth at 0.005 µM (OVCAR-8 [1]): 99%
growth at 0.005 µM (SF-539): 94%
growth at 0.05 µM (Malme-3M [2]): 109%
growth at 5 µM (OVCAR-8 [3]): -12%
growth at 0.05 µM (T47D): 101%
growth at 0.05 µM (M14): 100%
growth at 0.05 µM (NCI-H226): 92%
growth at 0.005 µM (BT-549 [4]): 104%
growth at 50 µM (LOX IMVI [5]): -45%
growth at 0.005 µM (K562 [6]): 103%
growth at 0.5 µM (NCI-H522): 68%
growth at 5 µM (RPMI-8226): -10%
growth at 50 µM (MOLT-4): -19%
growth at 50 µM (TK-10): -1%
growth at 50 µM (ACHN): 5%
growth at 0.5 µM (NCI-H460): 74%
growth at 50 µM (K562 [7]): 3%
growth at 0.5 µM [8]: 72%
growth at 5 µM (OVCAR-3 [9]): -34%
growth at 50 µM [10]: -19%
growth at 50 µM (MDA-MB-231 [11]): -54%
growth at 0.005 µM (Malme-3M [12]): 103%
growth at 0.05 µM (BT-549 [13]): 104%
growth at 0.05 µM (OVCAR-8 [14]): 96%
growth at 0.5 µM (HT-29): 81%
growth at 0.05 µM (SK-MEL-2 [15]): 112%
growth at 0.5 µM (RXF 393): 76%
growth at 5 µM (Malme-3M [16]): -38%
growth at 0.05 µM (OVCAR-3 [17]): 111%
growth at 5 µM (LOX IMVI [18]): -32%
growth at 5 µM (SK-MEL-2 [19]): -52%
growth at 50 µM (SK-OV-3): 6%
growth at 0.005 µM (SN12C): 94%
growth at 0.005 µM (MDA-MB-231 [20]): 92%
growth at 0.05 µM (U-251): 93%
growth at 0.5 µM (SK-MEL-28): 91%
